From article PMC5898707, “Piperazinyl fragment improves anticancer activity of Triapine” (PLoS ONE, 2018)

What was measured:
cancer cell lines = assay: Cytotoxicity MTS assay, whole panel of cancer cell lines; type: cell-based; details: Homo sapiens, Hs 683; all the cancer lines, Hs683 an exception
Source text: (§1) The human colon carcinoma cell line HCT116 wild type (p53^+/+), human breast carcinoma cell line MCF-7 and glioblastoma cell line Hs683 were obtained from ATCC. The glioma cell line U-251 was purchased from Sigma Aldrich and the normal human fibroblast cell lines NHDF from PromoCell. The human colon cancer cell line HCT116 with a p53 deletion (p53^-/-) was kindly provided by Prof. M. Rusin from the Maria Sklodowska-Curie Memorial Cancer Centre and Institute of Oncology in Gliwice, Poland. Cells were grown as monolayer cultures in Dulbecco’s modified Eagle’s medium with an antibiotic gentamicin (200 μL/100 mL medium) in 75 cm^2 flasks (Nunc). DMEM for HCT116, MCF-7, U-251, Hs683 were supplemented with 12% heat-inactivated fetal bovine serum (Sigma) and for NHDF with 15% non-inactivated fetal bovine serum (Sigma). All the cell lines were cultured under standard conditions at 37°C in a humidified atmosphere at 5% CO2.
The cells were seeded in 96-well plates (Nunc) at a density of 5,000 cells/well (HCT116, MCF-7, U-251, Hs683) and 4,000 cells/well (NHDF) and incubated at 37°C for 24 h. […] The optical densities of the samples were analyzed at 490 nm using a multi-plate reader (Synergy 4, Bio Tek). Results were expressed as a percentage of the control and calculated as the inhibitory concentration (IC50) values using GraphPad Prism 5. […]

HCT116 p53^+/+ = assay: Cytotoxicity MTS assay, 72 h; type: cell-based, human; details: Homo sapiens, HCT-116; HCT116 p53^+/+; 72 h; MTS
Source text: as §1
(§2) The cells were seeded in 96-well plates (Nunc) at a density of 5,000 cells/well (HCT116, MCF-7, U-251, Hs683) and 4,000 cells/well (NHDF) and incubated at 37°C for 24 h. The assay was performed following a 72 h incubation with varying concentrations of the compounds that were tested. Then, 20 μL of The CellTiter 96®AQueous One Solution-MTS (Promega) solution was added to each well (with 100 μL DMEM without phenol red) and incubated for 1 h at 37°C. The optical densities of the samples were analyzed at 490 nm using a multi-plate reader (Synergy 4, Bio Tek). Results were expressed as a percentage of the control and calculated as the inhibitory concentration (IC50) values using GraphPad Prism 5. The IC50 parameter was defined as the compound concentration that was necessary to reduce the proliferation of cells to 50% of the untreated control. Each individual compound was tested in triplicate in a single experiment with each experiment being repeated four to five times.

HCT116 p53^-/- = assay: Cytotoxicity MTS assay, 72 h; type: cell-based, human; details: Homo sapiens, HCT-116; HCT116 p53^-/-; 72 h; MTS
Source text: as §1, §2

MCF-7 = assay: Cytotoxicity MTS assay, 72 h; type: cell-based, human; details: Homo sapiens, MCF7; MCF-7; 72 h; MTS
Source text: as §1, §2

U-251 = assay: Cytotoxicity MTS assay, 72 h; type: cell-based, human; details: Homo sapiens; U-251; 72 h; MTS
Source text: as §1, §2

Hs683 = assay: Cytotoxicity MTS assay, 72 h; type: cell-based, human; details: Homo sapiens, Hs 683; Hs683; 72 h; MTS
Source text: as §1, §2

NHDF = assay: Cytotoxicity MTS assay, 72 h; type: cell-based; details: Homo sapiens, NHDF normal fibroblasts
Source text: as §1, §2

melting point: 206 to 207 °C
SMILES: Nc1cccnc1C=NNC(=S)N1CCN(c2ccc(Cl)cc2)CC1 [L^3, N’-[(3-aminopyridin-2-yl)methylidene]-4-(4-chlorophenyl)piperazine-1-carbothiohydrazide]
IC50 (cancer cell lines): 120 to 200 nM
IC50 (HCT116 p53^+/+): 120 ± 5 nM
IC50 (HCT116 p53^-/-): 167 ± 18 nM
IC50 (MCF-7): 204 ± 49 nM
IC50 (U-251): 128 ± 12 nM
IC50 (Hs683): 1480 ± 335 nM
IC50 (NHDF): > 25000 nM
